Test results reported in the NIST ThermoML archive (doi:10.1007/s10765-012-1371-1).
± gives the expanded uncertainty stated by the source.

Assay: xn = mol fraction of the nth substance listed
Conditions: 101 kPa, Liquid

CCC(C)Cl (centres undefined) [2-chlorobutane] + COC(C)(C)C
viscosity (283.15 K, x1 = 0.0434): 0.3916 ± 0.0078 mPa·s
viscosity (283.15 K, x1 = 0.0928): 0.3949 ± 0.0078 mPa·s
viscosity (283.15 K, x1 = 0.1824): 0.4008 ± 0.0079 mPa·s
viscosity (283.15 K, x1 = 0.2774): 0.4072 ± 0.008 mPa·s
viscosity (283.15 K, x1 = 0.3786): 0.4141 ± 0.0081 mPa·s
viscosity (283.15 K, x1 = 0.4751): 0.4208 ± 0.0082 mPa·s
viscosity (283.15 K, x1 = 0.584): 0.4287 ± 0.0083 mPa·s
viscosity (283.15 K, x1 = 0.6819): 0.436 ± 0.0084 mPa·s
viscosity (283.15 K, x1 = 0.8032): 0.4456 ± 0.0086 mPa·s
viscosity (283.15 K, x1 = 0.9015): 0.4536 ± 0.0087 mPa·s
viscosity (283.15 K, x1 = 0.9512): 0.458 ± 0.0088 mPa·s
viscosity (283.15 K, x1 = 1): 0.4631 ± 0.0088 mPa·s
viscosity (288.15 K, x1 = 0.0434): 0.3664 ± 0.0074 mPa·s
viscosity (288.15 K, x1 = 0.0928): 0.3694 ± 0.0074 mPa·s
viscosity (288.15 K, x1 = 0.1824): 0.3752 ± 0.0075 mPa·s
viscosity (288.15 K, x1 = 0.2774): 0.3816 ± 0.0076 mPa·s
viscosity (288.15 K, x1 = 0.3786): 0.3883 ± 0.0077 mPa·s
viscosity (288.15 K, x1 = 0.4751): 0.3951 ± 0.0078 mPa·s
viscosity (288.15 K, x1 = 0.584): 0.4029 ± 0.0079 mPa·s
viscosity (288.15 K, x1 = 0.6819): 0.4101 ± 0.008 mPa·s
viscosity (288.15 K, x1 = 0.8032): 0.4195 ± 0.0082 mPa·s
viscosity (288.15 K, x1 = 0.9015): 0.4274 ± 0.0083 mPa·s
viscosity (288.15 K, x1 = 0.9512): 0.4318 ± 0.0084 mPa·s
viscosity (288.15 K, x1 = 1): 0.4365 ± 0.0084 mPa·s
viscosity (293.15 K, x1 = 0.0434): 0.3507 ± 0.0071 mPa·s
viscosity (293.15 K, x1 = 0.0928): 0.3536 ± 0.0072 mPa·s
viscosity (293.15 K, x1 = 0.1824): 0.3591 ± 0.0073 mPa·s
viscosity (293.15 K, x1 = 0.2774): 0.365 ± 0.0074 mPa·s
viscosity (293.15 K, x1 = 0.3786): 0.3715 ± 0.0075 mPa·s
viscosity (293.15 K, x1 = 0.4751): 0.3779 ± 0.0075 mPa·s
viscosity (293.15 K, x1 = 0.584): 0.3853 ± 0.0077 mPa·s
viscosity (293.15 K, x1 = 0.6819): 0.3921 ± 0.0078 mPa·s
viscosity (293.15 K, x1 = 0.8032): 0.4009 ± 0.0079 mPa·s
viscosity (293.15 K, x1 = 0.9015): 0.4084 ± 0.008 mPa·s
viscosity (293.15 K, x1 = 0.9512): 0.4125 ± 0.0081 mPa·s
viscosity (293.15 K, x1 = 1): 0.4167 ± 0.0081 mPa·s
viscosity (298.15 K, x1 = 0.0434): 0.3353 ± 0.0069 mPa·s
viscosity (298.15 K, x1 = 0.0928): 0.3383 ± 0.007 mPa·s
viscosity (298.15 K, x1 = 0.1824): 0.3436 ± 0.007 mPa·s
viscosity (298.15 K, x1 = 0.2774): 0.3495 ± 0.0071 mPa·s
viscosity (298.15 K, x1 = 0.3786): 0.3558 ± 0.0072 mPa·s
viscosity (298.15 K, x1 = 0.4751): 0.3619 ± 0.0073 mPa·s
viscosity (298.15 K, x1 = 0.584): 0.3691 ± 0.0074 mPa·s
viscosity (298.15 K, x1 = 0.6819): 0.3757 ± 0.0075 mPa·s
viscosity (298.15 K, x1 = 0.8032): 0.3843 ± 0.0076 mPa·s
viscosity (298.15 K, x1 = 0.9015): 0.3915 ± 0.0078 mPa·s
viscosity (298.15 K, x1 = 0.9512): 0.3954 ± 0.0078 mPa·s
viscosity (298.15 K, x1 = 1): 0.3993 ± 0.0079 mPa·s
viscosity (303.15 K, x1 = 0.0434): 0.3177 ± 0.0067 mPa·s
viscosity (303.15 K, x1 = 0.0928): 0.3207 ± 0.0067 mPa·s
viscosity (303.15 K, x1 = 0.1824): 0.3261 ± 0.0068 mPa·s
viscosity (303.15 K, x1 = 0.2774): 0.3319 ± 0.0069 mPa·s
viscosity (303.15 K, x1 = 0.3786): 0.338 ± 0.007 mPa·s
viscosity (303.15 K, x1 = 0.4751): 0.3441 ± 0.0071 mPa·s
viscosity (303.15 K, x1 = 0.584): 0.351 ± 0.0072 mPa·s
viscosity (303.15 K, x1 = 0.6819): 0.3575 ± 0.0073 mPa·s
viscosity (303.15 K, x1 = 0.8032): 0.3657 ± 0.0074 mPa·s
viscosity (303.15 K, x1 = 0.9015): 0.3727 ± 0.0075 mPa·s
viscosity (303.15 K, x1 = 0.9512): 0.3764 ± 0.0075 mPa·s
viscosity (303.15 K, x1 = 1): 0.38 ± 0.0076 mPa·s
viscosity (308.15 K, x1 = 0.0434): 0.3019 ± 0.0064 mPa·s
viscosity (308.15 K, x1 = 0.0928): 0.3048 ± 0.0065 mPa·s
viscosity (308.15 K, x1 = 0.1824): 0.3099 ± 0.0065 mPa·s
viscosity (308.15 K, x1 = 0.2774): 0.3155 ± 0.0066 mPa·s
viscosity (308.15 K, x1 = 0.3786): 0.3215 ± 0.0067 mPa·s
viscosity (308.15 K, x1 = 0.4751): 0.3273 ± 0.0068 mPa·s
viscosity (308.15 K, x1 = 0.584): 0.334 ± 0.0069 mPa·s
viscosity (308.15 K, x1 = 0.6819): 0.3401 ± 0.007 mPa·s
viscosity (308.15 K, x1 = 0.8032): 0.3481 ± 0.0071 mPa·s
viscosity (308.15 K, x1 = 0.9015): 0.3547 ± 0.0072 mPa·s
viscosity (308.15 K, x1 = 0.9512): 0.3581 ± 0.0073 mPa·s
viscosity (308.15 K, x1 = 1): 0.3615 ± 0.0073 mPa·s
viscosity (313.15 K, x1 = 0.0434): 0.287 ± 0.0062 mPa·s
viscosity (313.15 K, x1 = 0.0928): 0.2897 ± 0.0062 mPa·s
viscosity (313.15 K, x1 = 0.1824): 0.2948 ± 0.0063 mPa·s
viscosity (313.15 K, x1 = 0.2774): 0.3002 ± 0.0064 mPa·s
viscosity (313.15 K, x1 = 0.3786): 0.306 ± 0.0065 mPa·s
viscosity (313.15 K, x1 = 0.4751): 0.3117 ± 0.0066 mPa·s
viscosity (313.15 K, x1 = 0.584): 0.3182 ± 0.0067 mPa·s
viscosity (313.15 K, x1 = 0.6819): 0.3241 ± 0.0068 mPa·s
viscosity (313.15 K, x1 = 0.8032): 0.3317 ± 0.0069 mPa·s
viscosity (313.15 K, x1 = 0.9015): 0.3379 ± 0.007 mPa·s
viscosity (313.15 K, x1 = 0.9512): 0.3411 ± 0.007 mPa·s
viscosity (313.15 K, x1 = 1): 0.3443 ± 0.0071 mPa·s
